How the values were obtained:
HEK293T and HAP1 cells = experiment: mammalian competitive proliferation assay, cells expressing Cas9 WT; format: cell-based, human; settings: WT Cas9, eight-day assay period
Description: (§1) For assessment of CRISPR-Cas programmed cell depletion using guide RNAs targeting an essential gene (RPA1) or sgCIDEs targeting hundreds of thousands of loci within the genome, cells were stably transduced with a lentiviral vector expressing Cas9-wt (pCF226) or ProCas9Flavi (pCF730) and selected on puromycin. Subsequently, these cell lines were further stably transduced with vectors expressing various mCherry-tagged sgRNAs and analyzed as follows: 1) After mixing sgRNA expressing populations with parental cells, the fraction of mCherry-positive cells was quantified over time. Different sgRNAs targeting a neutral gene (sgOR2B6), an essential gene (sgRPA1), >100,000 genomic loci (sgCIDE) and a non-targeting control (sgNT) were compared. 2) Alternatively, the cell lines were partially transduced with lentiviral vectors expressing a GFP-tagged dTEV (pCF736) or WNV (pCF738) protease, and cell depletion quantified by flow cytometry. Depletion of protease-expressing (GFP+) cells was quantified among the sgRNA-positive (mCherry+) population.
The effect of guide RNA expression on cell viability was assessed using a competitive proliferation assay in which cells expressing a specific sgRNA were mixed with parental cells expressing only Cas9 WT, and the mCherry-positive population was followed over time. […] Guide RNAs targeting the essential RPA1 gene depleted over the eight-day assay period.

[1] = system: HEK293T and HAP1 cells expressing ProCas9Flavi; experiment: competitive proliferation assay, cells expressing ProCas9Flavi; format: cell-based, human; settings: for cell depletion with protease: ProCas9Flavi cells, WNV protease vs dTEV; for cell depletion in the absence of a stimulus: genomically integrated ProCas9Flavi
Description: as §1
Cas-induced death by editing or ‘CIDE, as an output constrains the performance of ProCas9. The system remains off to minimize genomic damage yet is vigilant to respond to a stimulus. To develop this protease-induced altruistic defense platform, stable expression of the best CIDE guide RNAs (sgCIDE-2, sgCIDE-4) was assessed in conjunction with a genomically integrated ProCas9Flavi cassette to determine cell viability in the absence of a stimulus (FIG. 5B). […] Induction of this stably integrated altruistic defense system was then tested by Flavivirus proteases.

[2] = system: Cas9 expressing U-251 and LN-229; experiment: comet assay (genomic fragmentation); format: cell-based, human; settings: 24 hours post-transduction, compared to sgNT-1/2/3
Description: To look at the genomic effects of repetitive loci targeting, DNA from lysed targeted cells was separated on agarose-coated slides.

[3] = system: U-251, LN-229, T98G and LN-18 glioblastoma cells; experiment: luminescence-based quantification of cell viability; parameters: species or system human; settings: over five days
Description: To investigate the speed of cell elimination by either method, Cas9 expressing TMZ-sensitive U-251 and LN-229, and TMZ-resistant T98G and LN-18, glioblastoma cells were treated with TMZ or these cells were transduced with lentiviral vectors expressing sgCIDEs.

[4] = system: Cas9 expressing U-251, LN-229, T98G, and LN-18 glioblastoma cells; experiment: cell cycle analysis (PI staining, flow cytometry); format: cell-based, human; settings: one to five days; TMZ 50 μM or 100 μM
Description: The effects of genome shredding on cell cycle progression were then assessed. Cells were treated with TMZ or sgCIDEs for one to five days and then stained with PI after fixation for analysis by flow cytometry. […] Increases of the Sub-G1 population was more prominent in TP53-mutant U-251 cells compared LN-229 with wild-type TP53, consistent with previous observations that TP53 status affects resolution of the G2/M arrest.

[5] = system: Cas9 expressing U-251, LN-229, T98G, and LN-18 cells; experiment: colony formation assay (crystal violet); format: cell-based, human; settings: all four tested GBM cell lines, two weeks
Description: Because recurrent tumors develop from cells that escape treatment, either by avoiding exposure, tolerating the effects, or developing resistance, colony formation assays were performed to evaluate the robustness of CRISPR-Cas genome shredding in eliminating target cells.
TMZ-resistant LN-229 cell lines were isolated to determine which types of treatments could overcome such resistance. Cas9 expressing U-251, LN-229, T98G, and LN-18 cells were stably transduced with lentiviral vectors expressing sgNT-1/2 or sgCIDE-1/2/3/6/8/10 (Table 2), and seeded at 100, 1,000, and 10,000 cells per 6-well plate. Control cells were treated with DMSO or TMZ (50 μM).

Substance | depletion of the mCherry-positive population (HEK293T and HAP1 cells) | cell depletion with protease [1] | cell depletion in the absence of a stimulus [1] | comet tails (genomic fragmentation) [2] | lethality (cell viability) [3] | cell cycle profile [4] | effect on colony count [5]
sgCIDE-4: guide RNA CGCCTGTAATCCCAGCACTT (SEQ ID NO:4) (chemistry not given here) | rapid elimination of the mCherry-positive population | specific cell depletion | only minimal amounts of cell depletion | – | – | – | –
sgCIDE-3: guide RNA GCCTGTAATCCCAGCACTTT (SEQ ID NO:3) (chemistry not fully specified) | – | – | – | very long tails | viral titer-dependent lethality in all four tested glioblastoma cell lines | rapid increase of the Sub-G1 population starting at day one post-transduction | over three log-scales reduction in colony count
sgNT-2: non-targeting guide RNA GCGATGGGGGGGTGGGTAGC (SEQ ID NO:30) (chemistry not fully specified) [reference compound] | – | – | – | – | no effect | comparable normal cell cycle profiles | little effect on colony formation
sgCIDE-6: guide RNA CCCAGCACTTTGGGAGGCCG (SEQ ID NO:6) (chemistry not fully specified) | – | – | – | – | viral titer-dependent lethality in all four tested glioblastoma cell lines | rapid increase of the Sub-G1 population starting at day one post-transduction | over three log-scales reduction in colony count
sgOR2B6-1: guide RNA to olfactory receptor gene, CATTATTCTAGTGTCACGCC (SEQ ID NO:32) (chemistry not given here) [reference compound] | no depletion | – | – | – | – | comparable normal cell cycle profiles | –
sgCIDE-5: guide RNA CCTCGGCCTCCCAAAGTGCT (SEQ ID NO:5) (chemistry not given here) | rapid elimination of the mCherry-positive population | – | – | – | – | – | –
sgCIDE-8: guide RNA CTGTAATCCCAGCACTTTGG (SEQ ID NO:8) (chemistry not fully specified) | – | – | – | – | viral titer-dependent lethality in all four tested glioblastoma cell lines | rapid increase of the Sub-G1 population starting at day one post-transduction | over three log-scales reduction in colony count
sgRPA1-3: guide RNA to essential gene RPA1, ACTTTCGTCAACCAGTTCTA (SEQ ID NO:37) [reference compound] | – | – | – | – | – | accumulation in S-phase starting at day three, accompanied by increase of the Sub-G1 population | –
sgRPA1-2: guide RNA to essential gene RPA1, TACCTGGAGCAACTCCCGAG (SEQ ID NO:36) [reference compound] | – | – | – | – | – | accumulation in S-phase starting at day three, accompanied by increase of the Sub-G1 population | –
sgCIDE-2: guide RNA TCCCAAAGTGCTGGGATTAC (SEQ ID NO:2) (chemistry not given here) | rapid elimination of the mCherry-positive population | specific cell depletion | only minimal amounts of cell depletion | very long tails | viral titer-dependent lethality in all four tested glioblastoma cell lines | rapid increase of the Sub-G1 population starting at day one post-transduction | over three log-scales reduction in colony count
sgNT-1: non-targeting guide RNA GGCCAAACGTGCCCTGACGG (SEQ ID NO:29) (chemistry not fully specified) [reference compound] | – | – | – | – | no effect | comparable normal cell cycle profiles | little effect on colony formation
sgCIDE-1: guide RNA TGTAATCCCAGCACTTTGGG (SEQ ID NO:1), targets repetitive genomic sites (chemistry not given here) | rapid elimination of the mCherry-positive population | – | – | very long tails | viral titer-dependent lethality in all four tested glioblastoma cell lines | rapid increase of the Sub-G1 population starting at day one post-transduction | over three log-scales reduction in colony count
sgOR2B6-2: guide RNA to olfactory receptor gene, GGGTATGAAGTTTGGTGTCC (SEQ ID NO:33) (chemistry not given here) [reference compound] | no depletion | – | – | – | – | comparable normal cell cycle profiles | –
sgCIDE-10: guide RNA TTCTCCTGCCTCAGCCTCCC (SEQ ID NO:10) (chemistry not fully specified) | – | – | – | – | viral titer-dependent lethality in all four tested glioblastoma cell lines | rapid increase of the Sub-G1 population starting at day one post-transduction | over three log-scales reduction in colony count

From patent US20230043813A1, “METHODS FOR TARGETED CELL DEPLETION” (The Regents of the University of California, priority 2019, published 2023)
